ChEMBL document CHEMBL6114980, “Single or double lipid-modified ultra-short antimicrobial peptides for treating infections caused by resistant bacteria” (Eur J Med Chem, 2025)
Calls of active or inactive are those of the source. The calls are words filed in the database; no cut-off is given here. Peptide text beside a SMILES is read from it. * marks the point of attachment. Lauroyl = CCCCCCCCCCCC(=O)*; Octanoyl = CCCCCCCC(=O)*

Assays:
Staphylococcus aureus [1] = assay: Antibacterial activity against Staphylococcus aureus assessed as reduction in survival bacterial growth in presence of <= 2 ug/ml trypsin measured after1 hr by absorbance based analysis; assay type: functional, organism-based; conditions: time 1.0 hrs
Escherichia coli [2] = assay: Antibacterial activity against Escherichia coli assessed as reduction in survival bacterial growth in presence <=0.2 ug/ml of trypsin measured after1 hr by absorbance based analysis; assay type: functional, organism-based; conditions: time 1.0 hrs
Escherichia coli [3] = assay: Antibacterial activity against Escherichia coli assessed as reduction in survival bacterial growth in presence of MgCl2 measured after 18 to 24 hrs (reference value: 8 microM); assay type: functional; conditions: time 18-24 hrs
Staphylococcus aureus [4] = assay: Antibacterial activity against Staphylococcus aureus assessed as reduction in survival bacterial growth in presence of NaCl measured after 18 to 24 hrs (reference value: 4 microM); assay type: functional; conditions: time 18-24 hrs
Staphylococcus aureus [5] = assay: Antibacterial activity against Staphylococcus aureus assessed as reduction in survival bacterial growth in presence of MgCl2 measured after 18 to 24 hrs (reference value: 4 microM); assay type: functional; conditions: time 18-24 hrs
Staphylococcus aureus [6] = assay: Antibacterial activity against Staphylococcus aureus assessed as reduction in survival bacterial growth in presence of ZnCl2 measured after 18 to 24 hrs (reference value: 4 microM); assay type: functional; conditions: time 18-24 hrs
Staphylococcus aureus [7] = assay: Antibacterial activity against Staphylococcus aureus assessed as reduction in survival bacterial growth in presence of KCl measured after 18 to 24 hrs (reference value: 4 microM); assay type: functional; conditions: time 18-24 hrs
Staphylococcus aureus [8] = assay: Antibacterial activity against Staphylococcus aureus assessed as reduction in survival bacterial growth in presence of FeCl3 measured after 18 to 24 hrs (reference value: 4 microM); assay type: functional; conditions: time 18-24 hrs
Staphylococcus aureus [9] = assay: Induction of morphological changes in Staphylococcus aureus assessed as cell adhesion at 2 times MIC measured after 120 mins by SEM analysis; assay type: functional, organism-based
Cell membrane [10] = assay: Induction of outer membrane permeabilization in Escherichia coli assessed as increase in fluorescence intensity at 0.5 times MIC measured for 10 mins by fluorescence based NPN uptake assay
Staphylococcus aureus [11] = assay: Antibacterial activity against Staphylococcus aureus 25923 at sub-MIC concentration measured after 15 passages in presence of rifampin; assay type: functional, organism-based
Staphylococcus aureus [12] = assay: Additive antibacterial activity against methicillin-resistant Staphylococcus aureus 113 assessed as fractional inhibitory in presence of polymyxin B by checker board assay; assay type: functional
Staphylococcus aureus [13] = assay: Additive antibacterial activity against Staphylococcus aureus 25923 assessed as fractional inhibitory in presence of cephalothin by checker board assay; assay type: functional
Staphylococcus aureus [14] = assay: Synergistic antibacterial activity against methicillin-resistant Staphylococcus aureus assessed as fractional inhibitory in presence of streptomycin by checker board assay; assay type: functional
[15] = Acute toxicity in male BALB/c mouse assessed effect on edema in spleen at 100 to 130 mg/kg, ip measured after 7 days by H and E staining based analysis; assay type: organism-based; conditions: in vivo, 168 h, dose 100-130 mg/kg, time 7 day
[16] = Acute toxicity in male BALB/c mouse assessed effect on edema in heart at 100 to 130 mg/kg, ip measured after 7 days by H and E staining based analysis; assay type: organism-based; conditions: in vivo, 168 h, dose 100-130 mg/kg, time 7 day
[17] = Acute toxicity in male BALB/c mouse assessed increase in inflammatory cell infiltration at 100 to 130 mg/kg, ip measured after 7 days by H and E staining based analysis; assay type: organism-based; conditions: in vivo, 168 h, dose 100-130 mg/kg, time 7 day
[18] = Acute toxicity in male BALB/c mouse assessed increase in interstitial space at 100 to 130 mg/kg, ip measured after 7 days by H and E staining based analysis; assay type: organism-based; conditions: in vivo, 168 h, dose 100-130 mg/kg, time 7 day
[19] = Acute toxicity in male BALB/c mouse assessed distorted alveolar morphology at 100 to 130 mg/kg, ip measured after 7 days by H and E staining based analysis; assay type: organism-based; conditions: in vivo, 168 h, dose 100-130 mg/kg, time 7 day
[20] = Acute toxicity in male BALB/c mouse assessed congestion at 100 to 130 mg/kg, ip measured after 7 days by H and E staining based analysis; assay type: organism-based; conditions: in vivo, 168 h, dose 100-130 mg/kg, time 7 day
Staphylococcus aureus [21] = assay: Antibacterial activity against Staphylococcus aureus assessed as reduction in survival bacterial growth in presence of <=0.2 ug/ml trypsin measured after1 hr by absorbance based analysis; assay type: functional, organism-based; conditions: time 1.0 hrs
Escherichia coli [22] = assay: Antibacterial activity against Escherichia coli assessed as reduction in survival bacterial growth in presence <=0.02 ug/ml of trypsin measured after1 hr by absorbance based analysis; assay type: functional, organism-based; conditions: time 1.0 hrs
Staphylococcus aureus [23] = assay: Antibacterial activity against Staphylococcus aureus assessed as reduction in survival bacterial growth in presence of NaCl measured after 18 to 24 hrs (reference value: 8 microM); assay type: functional; conditions: time 18-24 hrs
Staphylococcus aureus [24] = assay: Antibacterial activity against Staphylococcus aureus assessed as reduction in survival bacterial growth in presence of Mgcl2 measured after 18 to 24 hrs (reference value: 8 microM); assay type: functional; conditions: time 18-24 hrs
Cell membrane [25] = assay: Induction of outer membrane permeabilization in Escherichia coli assessed as increase in fluorescence intensity at 1 times MIC measured for 10 mins by fluorescence based NPN uptake assay
Cell membrane [26] = assay: Induction of cytoplasmic membrane depolarization in Escherichia coli assessed as increase in fluorescence intensity at 0.5 to 2 times MIC measured for 10 mins by DiSC3-5 dye based fluorescence assay
Cell membrane [27] = assay: Induction of cytoplasmic membrane depolarization in Staphylococcus aureus assessed as increase in fluorescence intensity at 0.5 to 4 times MIC measured for 1 mins by DiSC3-5 dye based fluorescence assay
Staphylococcus aureus [28] = assay: Synergistic antibacterial activity against methicillin-resistant Staphylococcus aureus 113 assessed as fractional inhibitory in presence of polymyxin B by checker board assay; assay type: functional
Staphylococcus aureus [29] = assay: Additive antibacterial activity against methicillin-resistant Staphylococcus aureus assessed as fractional inhibitory in presence of streptomycin by checker board assay; assay type: functional
[30] = Acute toxicity in male BALB/c mouse assessed partial hepatocyte necrosis at 100 to 130 mg/kg, ip measured after 7 days by H and E staining based analysis; assay type: organism-based; conditions: in vivo, 168 h, dose 100-130 mg/kg, time 7 day
[31] = Acute toxicity in male BALB/c mouse assessed inflammatory cell infiltration in kidney at 100 to 130 mg/kg, ip measured after 7 days by H and E staining based analysis; assay type: organism-based; conditions: in vivo, 168 h, dose 100-130 mg/kg, time 7 day
[32] = Acute toxicity in male BALB/c mouse assessed inflammatory cell infiltration in lung at 100 to 130 mg/kg, ip measured after 7 days by H and E staining based analysis; assay type: organism-based; conditions: in vivo, 168 h, dose 100-130 mg/kg, time 7 day
[33] = Acute toxicity in male BALB/c mouse assessed inflammatory cell infiltration in spleen at 100 to 130 mg/kg, ip measured after 7 days by H and E staining based analysis; assay type: organism-based; conditions: in vivo, 168 h, dose 100-130 mg/kg, time 7 day
[34] = Acute toxicity in male BALB/c mouse assessed inflammatory cell infiltration in liver at 100 to 130 mg/kg, ip measured after 7 days by H and E staining based analysis; assay type: organism-based; conditions: in vivo, 168 h, dose 100-130 mg/kg, time 7 day

In the case of `CCCCCCCCCCCC(=O)N[C@@H](CCCCN)C(=O)N[C@@H](CCCCN)C(=O)N[C@@H](Cc1c[nH]c2ccccc12)C(=O)N[C@@H](Cc1c[nH]c2ccccc12)C(N)=O` (Lauroyl-KKWW-NH2), the Activity (Staphylococcus aureus [1]) is reported as “Active”, the Activity (Escherichia coli [2]) is reported as “Active” and the MIC (Escherichia coli [3]) is reported as 8 µM. For the same compound, the MIC (Staphylococcus aureus [4]) was 4 µM, the MIC (Staphylococcus aureus [5]) was 4 µM and the MIC (Staphylococcus aureus [6]) was 4 µM. For the same compound, the MIC (Staphylococcus aureus [7]) was 4 µM, the MIC (Staphylococcus aureus [8]) was 2 µM and the Activity (Staphylococcus aureus [9]) was “Active”. For the same compound, the Activity (Cell membrane [10]) was “Active”, the Activity (Staphylococcus aureus [11]) was “Active” and the “fractional inhibitory concentration index (FICI)” value (Staphylococcus aureus [12]) was 0.625. The “fractional inhibitory concentration index (FICI)” value (Staphylococcus aureus [13]) was 0.562, the “fractional inhibitory concentration index (FICI)” value (Staphylococcus aureus [14]) was 0.375 and the Activity [15] was “Non-toxic”. The Activity [16] was “Non-toxic”, the Activity [17] was “Toxic” and the Activity [18] was “Toxic”. For the same compound, the Activity [19] was “Toxic” and the Activity [20] was “Toxic”.

For `CCCCCCCC(=O)NCCCC[C@H](NC(=O)CCCCCCC)C(=O)N[C@@H](CCCCN)C(=O)N[C@@H](CCCCN)C(=O)N[C@@H](Cc1c[nH]c2ccccc12)C(=O)N[C@@H](Cc1c[nH]c2ccccc12)C(N)=O` (Octanoyl-K(Octanoyl)KKWW-NH2), the Activity (Staphylococcus aureus [21]) was “Active”, the Activity (Escherichia coli [22]) was “Active” and the MIC (Staphylococcus aureus [23]) was 8 µM. For the same compound, the MIC (Staphylococcus aureus [24]) was 8 µM, the Activity (Cell membrane [25]) was “Active” and the Activity (Cell membrane [26]) was “Active; Compound Showed Similar Effect As Quality Control Polymyxin B”. The Activity (Cell membrane [27]) was “Active”, the “fractional inhibitory concentration index (FICI)” value (Staphylococcus aureus [28]) was 0.312 and the “fractional inhibitory concentration index (FICI)” value (Staphylococcus aureus [29]) was 0.562. The Activity [30] was “Non-toxic”, the Activity [31] was “Non-toxic” and the Activity [32] was “Non-toxic”. The Activity [33] was “Non-toxic” and the Activity [34] was “Non-toxic”.
